The source of these data is patent US20190321311A1, “Cancer Treatment by Simultaneous Targeting Energy Metabolism and Intracellular pH” (Deutsches Krebsforschungszentrum, priority 2016, published 2019).

Read-outs that look alike come from different tables or passages of the source.

One data set relates to Lung cancer H1975 cells. Briefly: Cell viability assay, CellTiter-Blue, H1975. Conditions: Homo sapiens, NCI-H1975, 48 h, pH 6.5, read-out: fraction (%) of viable cells. As to the method:
(§1) Indicated cells were treated with indicated drug combinations for 48 h or as indicated in conditions imitating tumor environment—RPMI supplemented with 10% FCS and 20 mM PIPES, adjusted to pH 6.5. After treatment, cells were analyzed for cell viability: • using CellTiter-Blue® Cell Viability Assay, Promega according to manufacturer recommendations. For each treatment, the fraction (%) of viable cells are indicated. Untreated viable cells were set to 100%. Average data of 2 independent experiments are presented. Each independent experiment contained 4 biological replicates for each condition. • using CellTiter-Glo® Cell Viability Assay, Promega according manufacturer recommendations. For each treatment the fraction (%) of viable cells are indicated. Untreated viable cells were set to 100%. Each measurement represents the mean value of 4 biological replicates for each condition.

The test system of data set [1] is Pancreas cancer Bxpc3 cells. Nature of the data set: Cell viability assay, CellTiter-Glo, Bxpc3. Conditions: Homo sapiens, BXPC-3, 48 h, pH 6.5, read-out: fraction (%) of viable cells. As to the method:
as §1

A further data set deals with Melanoma A375 cells. Briefly: Cell viability assay, CellTiter-Glo, A375. Conditions: Homo sapiens, A-375, 48 h, pH 6.5, read-out: fraction (%) of viable cells. As to the method:
as §1

Data set [2] concerns Prostate cancer PC3 cells. Briefly: Cell viability assay, CellTiter-Glo, PC3. Conditions: Homo sapiens, PC-3, 48 h, pH 6.5, read-out: fraction (%) of viable cells. As to the method: as §1
In data set [3] the test system is Colon cancer DLD1 cells. Nature of the data set: Cell viability assay, CellTiter-Glo, DLD1. As to the method:
as §1

The subject of data set [4] is Breast cancer MDA-MB-231 cells. Nature of the data set: Cell viability assay, CellTiter-Blue, MDA-MB-231. Conditions: Homo sapiens, MDA-MB-231, 48 h, pH 6.5, read-out: fraction (%) of viable cells. The method, then:
as §1

Another data set concerns Mouse melanoma B16F10. Nature of the data set: Cell viability assay, CellTiter-Glo, B16F10. As to the method: as §1
The subject of data set [5] is Colon cancer DLD1 cells. Nature of the data set: Cell viability assay, CellTiter-Blue, DLD1. Conditions: Homo sapiens, DLD-1, 72 h, pH 6.5, read-out: fraction (%) of viable cells. As to the method:
as §1

In a further data set the test system is Lung cancer H1975. Nature of the data set: Cell viability assay, CellTiter-Glo, H1975. Conditions: Homo sapiens, NCI-H1975, 72 h, pH 6.5, read-out: fraction (%) of viable cells. The method, then: as §1
The mark [6] stands for this setting: Homo sapiens, DLD-1, 72 h, pH 6.5, read-out: fraction (%) of viable cells.

Regarding `CO[C@@H]1C[C@@H](C[C@H]2CC[C@H](C)[C@H]([C@@H](C)C(=O)O)O2)O[C@]2(O[C@](C)([C@H]3CC[C@@](C)([C@@H]4O[C@@H]([C@H]5O[C@@](O)(CO)[C@H](C)C[C@@H]5C)C[C@@H]4C)O3)C[C@H]2C)[C@@H]1C` [Nigericin], the viability at 0.0025 µM stood at 93% in the data set on Lung cancer H1975 cells, 7% in the data set on Melanoma A375 cells and 98% in [4]. Further, the viability at 0.005 µM came out at 95% in the data set with Lung cancer H1975 cells; 39% in data set [1]; 31% in data set [2]; 107% in the data set with Colon cancer DLD1 cells [3] (setting [6]); 101% in data set [4]. Also, the viability at 0.01 µM worked out at 35% in data set [1], 0% in [2] and 103% in the data set with Colon cancer DLD1 cells [3] (setting [6]). In addition, the viability at 0.00125 µM in the data set with Melanoma A375 cells stood at 58%.

Turning to `Nc1ncnc2c1nc(Sc1ccc(Cl)cc1)n2[C@@H]1O[C@@H]2COP(=O)([O-])O[C@H]2[C@H]1O.[Na+]` [8-CPT-cAMP, 8-(4-Chlorophenylthio)-adenosine-3′,5′-cyclic monophosphate], the “relative values of cell viability” value in the data set on Mouse melanoma B16F10 (8-CPT-cAMP 100 μM alone, 48 h, pH 6.5) is on record as 86%.

In the case of `C=C(C)[C@H]1Cc2c(ccc3c2O[C@@H]2COc4cc(OC)c(OC)cc4[C@@H]2C3=O)O1` [Rotenone], the figures for the viability at 0.0025 µM (with Lung cancer H1975 cells; in the data set on Melanoma A375 cells; in [4]) were 103%, 91% and 98%, respectively. For the same compound, the viability at 0.005 µM with Lung cancer H1975 cells came out at 104%; in [1], 104%; with Colon cancer DLD1 cells [5] it was 87%; with Melanoma A375 cells, 75%; in data set [2], 45%; with Colon cancer DLD1 cells [3] (setting [6]) it was 96%. In addition, the viability at 0.005 µM in [4] was found to be 102%. Also, the viability at 0.01 µM in the data set with Lung cancer H1975 cells was determined as 110%; in data set [1], 89%; in data set [2], 4%; in the data set on Colon cancer DLD1 cells [3] (setting [6]), 89%; in [4], 99%. Also, the viability at 0.02 µM in the data set on Lung cancer H1975 cells is 84%; in data set [1], 59%; in [2] it was 1%; in the data set with Colon cancer DLD1 cells [3] (setting [6]), 67%; in data set [4] it was 81%. Besides, the viability at 0.00125 µM with Melanoma A375 cells was 96%.

With `C=C[C@@]1(C)CC(=O)[C@]2(O)[C@@]3(C)[C@@H](O)CCC(C)(C)[C@@H]3[C@H](O)[C@H](OC(C)=O)[C@@]2(C)O1` [Forskolin, forskolin], in the data set on Mouse melanoma B16F10 (Mus musculus, B16-F10, 48 h, pH 6.5, read-out: relative values of cell viability, Forskolin 10 μM alone, pH 6.5), the viability at 10 µM came to 78%.

Turning to `CO[C@@H]1[C@@H](OC)[C@H](C)[C@@](O)(CC(=O)O)O[C@H]1[C@H](C)[C@H]1O[C@@]2(CC[C@@](C)([C@H]3CC[C@@](C)([C@@H]4O[C@@H]([C@H]5O[C@](C)(O)[C@H](C)C[C@@H]5C)C[C@@H]4O[C@@H]4C[C@H](OC)[C@@H](OC)[C@H](C)O4)O3)O2)C[C@H](O)[C@H]1C` [Maduramicin], in the data set on Mouse melanoma B16F10 (Mus musculus, B16-F10, 48 h, pH 6.5, read-out: fraction (%) of viable cells, Maduramicin 4.00 nM, Phenformin 0.00 μM, pH 6.5), the viability at 0.004 µM amounted to 111%.

In the case of `CC[C@@]1([C@@H]2O[C@@H]([C@H]3O[C@@](O)(CO)[C@H](C)C[C@@H]3C)C[C@@H]2C)CC[C@H]([C@]2(C)CC[C@]3(C[C@H](O)[C@@H](C)[C@@H]([C@@H](C)[C@@H](OC)[C@H](C)C(=O)O)O3)O2)O1` [Monensin], the viability at 0.004 µM with Mouse melanoma B16F10 (Mus musculus, B16-F10, 48 h, pH 6.5, read-out: fraction (%) of viable cells, Monensin 4.00 nM, Metformin 0.00 μM, pH 6.5) worked out at 111%; in the data set with Mouse melanoma B16F10 (Mus musculus, B16-F10, 48 h, pH 6.5, read-out: fraction (%) of viable cells, Monensin 4.00 nM, Phenformin 0.00 μM, pH 6.5) it was 95%. In addition, the viability at 0.005 µM came out at 88% in the data set with Colon cancer DLD1 cells [5] and 55% in the data set on Lung cancer H1975. Also, the viability at 0.01 µM with Colon cancer DLD1 cells [5] was determined as 72%. Also, in the data set with Colon cancer DLD1 cells [5], the viability at 0.02 µM was found to be 55%. The “fraction (%) of viable cells” value in the data set on Colon cancer DLD1 cells [3] (human, 72 h, 5 nM, pH 6.5) came out at 112%.

`[H]/N=C(/N)N/C(=N/[H])NCCc1ccccc1` [Phenformin]: the viability at 4 µM with Mouse melanoma B16F10 (Mus musculus, B16-F10, 48 h, pH 6.5, read-out: fraction (%) of viable cells, Phenformin 4 μM, Maduramicin 0.00 nM, pH 6.5 (Table 12)) was 82%; in the data set with Mouse melanoma B16F10 (Mus musculus, B16-F10, 48 h, pH 6.5, read-out: fraction (%) of viable cells, Phenformin 4 μM, Monensin 0.00 nM, pH 6.5 (Table 11)) it was 82%. Further, the viability at 8 µM in the data set with Mouse melanoma B16F10 (Mus musculus, B16-F10, 48 h, pH 6.5, read-out: fraction (%) of viable cells, Phenformin 8 μM, Maduramicin 0.00 nM, pH 6.5 (Table 12)) stood at 76%; in the data set on Mouse melanoma B16F10 (Mus musculus, B16-F10, 48 h, pH 6.5, read-out: fraction (%) of viable cells, Phenformin 8 μM, Monensin 0.00 nM, pH 6.5 (Table 11)), 76%. The viability at 16 µM came to 56% in the data set on Mouse melanoma B16F10 (Mus musculus, B16-F10, 48 h, pH 6.5, read-out: fraction (%) of viable cells, Phenformin 16 μM, Maduramicin 0.00 nM, pH 6.5 (Table 12)) and 56% in the data set on Mouse melanoma B16F10 (Mus musculus, B16-F10, 48 h, pH 6.5, read-out: fraction (%) of viable cells, Phenformin 16 μM, Monensin 0.00 nM, pH 6.5 (Table 11)).
